Results from patent publication US8492537B2, “Nucleosides for suppressing or reducing the development of resistance in cytostatic therapy” (RESprotect GmbH, priority 2006, dated 2013).

Compound `CC(C)[C@H](NC(=O)OC(C)(C)C)C(=O)OC[C@H]1O[C@@H](n2cc(/C=C/Br)c(=O)[nH]c2=O)C[C@@H]1Cl` [1.2.2.5, 5′-O—(N-t-butyloxycarbonyl-L-valinoyl)-3′-chloro-2′,3′-dideoxy-5-(E)-bromovinyluridine] has a melting point of 75 to 76 °C.
Work on `CC(C)[C@H](NC(=O)OC(C)(C)C)C(=O)N[C@H](C(=O)OC[C@H]1O[C@@H](n2cc(/C=C/Br)c(=O)[nH]c2=O)C[C@@H]1Cl)C(C)C` [1.2.2.7, 5′-O—(N-t-butyloxycarbonyl-L-valyl-L-valinoyl)-3′-chloro-2′,3′-dideoxy-5-(E)-bromovinyluridine] yielded a melting point of 102 to 103 °C.
In the case of `CC(C)[C@H](NC(=O)OC(C)(C)C)C(=O)N[C@H](C(=O)OC[C@H]1O[C@@H](n2cc(/C=C/Br)c(=O)[nH]c2=O)C[C@@H]1N=[N+]=[N-])C(C)C` [1.2.2.9, 3′-azido-5′-O—(N-t-butyloxycarbonyl-L-valyl-L-valinoyl)-2′,3′-dideoxy-5-(E)-bromovinyluridine], the melting point is reported as 95 to 97 °C.
`CC(=O)N[C@H]1C[C@H](n2cc(/C=C/Br)c(=O)[nH]c2=O)O[C@@H]1CBr` [1.4.2, 3′-acetamido-5′-bromo-2′,3′,5′-trideoxy-5-(E)-bromovinyluridine] gave a melting point of 178 to 180 °C.
With `O=c1[nH]c(=O)n([C@H]2C[C@H](O)[C@@H](CF)O2)cc1/C=C/Br` [2.1.1, 2′,5′-dideoxy-5′-fluoro-5-(E)-bromovinyluridine] the melting point was 208 °C.
`CO[C@H]1C[C@H](n2cc(/C=C/Br)c(=O)[nH]c2=O)O[C@@H]1CCl` [2.1.2, 3′-O-methyl-5′-chloro-2′,5′-dideoxy-5-(E)-bromovinyluridine] showed a melting point of 145 °C.
Work on `CO[C@H]1C[C@H](n2cc(/C=C/Br)c(=O)n(C)c2=O)O[C@@H]1CF` [2.1.3, 3′-O-methyl-5′-fluoro-2′,5′-dideoxy-3-methyl-5-(E)-bromovinyluridine] yielded a melting point of 95 °C.
Work on `CO[C@H]1C[C@H](n2cc(/C=C/Br)c(=O)[nH]c2=O)O[C@@H]1CF` [2.1.4, 3′-O-methyl-5′-fluoro-2′,5′-dideoxy-5-(E)-bromovinyluridine] yielded a melting point of 177 °C.
`CC(=O)O[C@H]1C[C@H](n2cc(/C=C/Br)c(=O)[nH]c2=O)O[C@@H]1C(O)F` (stereo partly shown) [2.2.1, 3′-O-acetyl-5′-fluoro-2′-deoxy-5-(E)-bromovinyluridine] showed a melting point of 81 °C.
With `CCCCOC(=O)N[C@H](C(=O)O[C@H]1C[C@H](n2cc(/C=C/Br)c(=O)[nH]c2=O)O[C@@H]1CCl)C(C)C` [2.2.2.5, 3′-O—(N-4-butyloxycarbonyl-L-valinoyl)-5′-chloro-2′,5′-dideoxy-5-(E)-bromovinyluridine] the melting point was 87 to 88 °C.
For `CC(C)[C@H](NC(=O)OC(C)(C)C)C(=O)N[C@H](C(=O)O[C@H]1C[C@H](n2cc(/C=C/Br)c(=O)[nH]c2=O)O[C@@H]1CCl)C(C)C` [2.2.2.7, 3′-O—(N-t-butyloxycarbonyl-L-valyl-L-valinoyl)-5′-chloro-2′,5′-dideoxy-5-(E)-bromovinyluridine], the melting point was 114 to 116 °C.
Work on `CC(C)[C@H](NC(=O)OC(C)(C)C)C(=O)N[C@H](C(=O)O[C@H]1C[C@H](n2cc(/C=C/Br)c(=O)[nH]c2=O)O[C@@H]1CN=[N+]=[N-])C(C)C` [2.2.2.9, 5′-azido-3′-O—(N-t-butyloxycarbonyl-L-valyl-L-valinoyl)-2′,5′-dideoxy-5-(E)-bromovinyluridine] yielded a melting point of 133 to 135 °C.
With `O=c1[nH]c(=O)n([C@@H]2O[C@H](CBr)[C@@H](O)[C@H]2O)cc1/C=C/Br` [2.3, 5′-bromo-5′-deoxy-5-(E)-bromovinyluridine] the melting point was 201 °C.
Work on `O=c1[nH]c(=O)n([C@H]2C[C@H](F)[C@@H](CF)O2)cc1/C=C/Br` [3.1, 3′,5′-difluoro-2′,3′,5′-trideoxy-5-(E)-bromovinyluridine] yielded a melting point of 177 to 180 °C.
`O=c1[nH]c(=O)n([C@H]2C[C@H](F)[C@@H](CCl)O2)cc1/C=C/Br` [3.2, 3′-fluoro-5′-chloro-2′,3′,5′-trideoxy-5-(E)-bromovinyluridine] showed a melting point of 203 °C.
`O=c1[nH]c(=O)n([C@H]2C[C@H](Cl)[C@@H](CCl)O2)cc1/C=C/Br` [3.3, 3′,5′-dichloro-2′,3′,5′-trideoxy-5-(E)-bromovinyluridine] showed a melting point of 184 °C.
Compound `O=c1[nH]c(=O)n([C@H]2C[C@H](Cl)[C@@H](CBr)O2)cc1/C=C/Br` [3.5, 3′-chloro-5′-bromo-2′,3′,5′-trideoxy-5-(E)-bromovinyluridine] has a melting point of 149 °C.
With `[N-]=[N+]=NC[C@H]1O[C@@H](n2cc(/C=C/Br)c(=O)[nH]c2=O)C[C@@H]1Cl` [3.5.3, 5′-azido-3′-chloro-2′,3′,5′-trideoxy-5-(E)-bromovinyluridine] the melting point was 58 to 60 °C.
Compound `[N-]=[N+]=N[C@H]1C[C@H](n2cc(/C=C/Br)c(=O)[nH]c2=O)O[C@@H]1CCl` [3.5.4, 3′-azido-5′-chloro-2′,3′,5′-trideoxy-5-(E)-bromovinyluridine] has a melting point of 124 to 125 °C.
For `O=c1[nH]c(=O)n([C@H]2C[C@H](Br)[C@@H](CBr)O2)cc1/C=C/Br` [3.6, 3′,5′-dibromo-2′,3′,5′-trideoxy-5-(E)-bromovinyluridine], the melting point was 153 °C.
With `O=c1[nH]c(=O)n([C@H]2C=C[C@@H](CO)O2)cc1/C=C/Br` [4.1, 2′,3′-didehydro-2′,3′-dideoxy-5-(E)-bromovinyluridine] the melting point was > 250 °C (dec.).
In the case of `O=c1[nH]c(=O)n([C@H]2C=C[C@@H](CBr)O2)cc1/C=C/Br` [4.2, 2′,3′-didehydro-2′,3′,5′-trideoxy-5′-bromo-5-(E)-bromovinyluridine], the melting point is reported as greater than 150 °C.
Compound `O=c1[nH]c(=O)n([C@@H]2O[C@H](CO)[C@@H](O)[C@H]2F)cc1/C=C/Br` [5.1, 2′-fluoro-2′-deoxy-5-(E)-bromovinyluridine] has a melting point of 182 °C.
With `O=c1[nH]c(=O)n([C@@H]2O[C@H](CBr)[C@@H](O)[C@H]2F)cc1/C=C/Br` [5.2, 2′-fluoro-5′-bromo-2′,5′-dideoxy-5-(E)-bromovinyluridine] the melting point was 223 °C.
In the case of `C[C@H]1O[C@@H](n2cc(/C=C/Br)c(=O)[nH]c2=O)C[C@@H]1O` [8.1, 2′,5′-dideoxy-5-(E)-bromovinyluridine], the melting point is reported as 174 °C (dec.).
With `C[C@H]1O[C@@H](n2cc(/C=C/Br)c(=O)[nH]c2=O)C[C@@H]1Cl` [8.2, 3′-chloro-2′,3′,5′-trideoxy-5-(E)-bromovinyluridine] the melting point was 134 °C.
`CC(=O)O[C@H]1C[C@H](n2cc(/C=C/Br)c(=O)[nH]c2=O)O[C@@H]1CC#N` [10.3, 3′-O-acetyl-5′-cyano-2′,5′-dideoxy-5-(E)-bromovinyluridine] showed a melting point of 96 °C.
In the case of `N#CC[C@H]1O[C@@H](n2cc(/C=C/Br)c(=O)[nH]c2=O)C[C@@H]1O` [compound 10, 5′-cyano-2′,5′-dideoxy-5-(E)-bromovinyluridine], the melting point is reported as 177 °C (dec.).
